Results on eight compounds are retold here after patent publication US20040082602A1, “Substituted thiophene carboxamide compounds for the treatment of inflammation” (priority 2002, published 2004).

Molecules are shown by their SMILES. Counter-ions that a name gives are not always drawn.

The assay deals with T1, IKK-2 (Homo sapiens, UniProt O14920).
T1 construct: made in house; host or cells: baculovirus (pFastBac) in insect cells; SF9
T1 sequence (O14920 1-756): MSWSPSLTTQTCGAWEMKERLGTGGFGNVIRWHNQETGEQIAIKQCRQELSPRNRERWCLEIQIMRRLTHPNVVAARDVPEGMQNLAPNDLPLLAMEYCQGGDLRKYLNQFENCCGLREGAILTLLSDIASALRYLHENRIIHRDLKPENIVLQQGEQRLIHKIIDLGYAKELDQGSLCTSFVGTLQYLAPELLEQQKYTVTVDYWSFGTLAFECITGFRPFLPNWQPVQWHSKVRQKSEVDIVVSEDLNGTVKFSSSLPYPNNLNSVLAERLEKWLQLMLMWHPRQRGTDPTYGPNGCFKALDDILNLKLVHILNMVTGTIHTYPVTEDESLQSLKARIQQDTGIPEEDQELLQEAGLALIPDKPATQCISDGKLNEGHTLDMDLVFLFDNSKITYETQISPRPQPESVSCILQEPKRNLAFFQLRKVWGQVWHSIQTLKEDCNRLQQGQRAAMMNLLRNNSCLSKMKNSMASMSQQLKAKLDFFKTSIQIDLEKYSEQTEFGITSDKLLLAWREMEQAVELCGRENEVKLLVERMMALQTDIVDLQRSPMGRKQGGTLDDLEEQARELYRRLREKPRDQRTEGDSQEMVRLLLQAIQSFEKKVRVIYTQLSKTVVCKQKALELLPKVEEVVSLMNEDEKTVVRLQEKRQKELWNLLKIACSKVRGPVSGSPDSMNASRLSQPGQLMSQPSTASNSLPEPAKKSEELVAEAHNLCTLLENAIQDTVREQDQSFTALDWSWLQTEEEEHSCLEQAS
In words: IKK-2 Resin assay (IKKβ Resin Enzyme Assay). Type of assay: biochemical. Conditions: rhIKK2 homodimer, 5 μM biotinylated IκBα peptide, 1 μM ATP, 25° C., 30 min. From the text:
cDNAs of human IKK1 and IKK2 were amplified by reverse transcriptase-polymerase chain reaction from human placental RNA (Clonetech). hIKK1 was subcloned into pFastBac HTa (Life Technologies) and expressed as N-terminal His6-tagged fusion protein. The hIKK2 cDNA was amplified using a reverse oligonucleotide primer which incorporated the peptide sequence for a FLAG-epitope tag at the C-terminus of the IKK2 coding region (DYKDDDDKD). The hIKK2:FLAG cDNA was subcloned into the baculovirus vector pFastBac. The rhIKK2 ([…]) mutant was constructed in the same vector used for wild type rhIKK2 using a QuikChange™ mutagenesis kit (Stratagene). Viral stocks of each construct were used to infect insect cells grown in 40L suspension culture. […] Cell lysates were stored at −80° C. until purification of the recombinant proteins was undertaken as described below.
A 10-liter culture of baculovirus-expressing IKK2 tagged with FLAG peptide was centrifuged and the cell pellet (MOI=0.1 and 1=72 hrs) was re-suspended in buffer A. These cells were microfluidized, and centrifuged at 100,000×g for 45 min. Supernatant was passed over a G-25 column equilibrated with Buffer A. Protein peak was collected and incubated with anti-FLAG affinity resin on a rotator overnight in buffer B. The resin was washed in batch with 10-15 bed volumes of buffer C. Washed resin was poured into a column and rhIKK2 homodimer was eluted using 5 bed volumes of buffer B containing FLAG peptide. 5 mM DTT, 0.1% NP-40 and BSA (concentrated to 0.1% in final amount) was added to the eluted enzyme before concentrating in using an Amicon membrane with a molecular weight cut-off of 30 kDa. Enzyme was aliquoted and stored at −80° C.
IKKβ kinase activity was measured using a biotinylated IκBα peptide (Gly-LeuLys-Lys-Glu-Arg-Leu-Leu-Asp-Asp-Arg-His-Asp-Ser32-Gly-Leu-Asp-Ser36-Met Lys-Asp-Glu-Glu) (American Peptide Co.). 20 ul of the standard reaction mixture contained 5 μM biotinylated IκBα peptide, 0.1 μCi/reaction [γ^33P] ATP (Amersham) (about 1×10^5 cpm), 1 μM ATP (Sigma), 1 mM DTT (Sigma), 2 mM MgCl2 (Sigma), 2 mM MnCl2 (Sigma), 10 mM NaF (Sigma), 25 mM Hepes (Sigma) buffer, pH 7.6 and 20 μl enzyme solution and 10 ul inhibitor in a final volume of […]. After incubation at 25° C. for 30 min, 150 μl resin (Dowex anion-exchange resin AGIX8 200-400 mesh) in 900 mM formate, pH 3.0 was added to each well to stop the reaction. Resin was allowed to settle for one hour and 50 ul of supernatant was removed to a Micolite-2 flat bottom plate (Dynex). 150 μl of scintillation fluid (Microscint 40) (Packard) was added to each well. Incorporation of [γ-^33P] ATP was measured using a Top-Count NXT (Packard).
On to `N#Cc1c(N)sc2c1CCc1ccccc1-2` [Example 6, 2-amino-4,5-dihydronaphtho[1,2-b]thiophene-3-carbonitrile], for which the IC50 lay within 10 to 20 µM.
The compound `NC(=O)Nc1sc2c(c1C(N)=O)CCc1ccccc1-2` [Example 8, 2-[(aminocarbonyl)amino]-4,5-dihydronaphtho[1,2-b]thiophene-3-carboxamide] came in with an IC50 of at most 1 µM.
The result for `NC(=O)c1sc2c(c1N)CCc1ccccc1-2` [Example 1, 3-amino-4,5-dihydronaphtho[1,2-b]thiophene-2-carboxamide] reads 10 to 20 µM; that for `COc1ccc2c(c1)-c1sc(C(N)=O)c(N)c1CC2` [Example 2, 3-amino-8-methoxy-4,5-dihydronaphtho[1,2-b]thiophene-2-carboxamide], 1 to 10 µM.
Turning to `NCCNc1c(C(N)=O)sc2c1CCc1ccccc1-2` [Example 3, 3-[(2-aminoethyl)amino]-4,5-dihydronaphtho[1,2-b]thiophene-2-carboxamide hydrobromide], the 50% inhibitory concentration (IC50) is 1 to 10 µM.
Regarding `CC(=O)Nc1sc2c(c1C(N)=O)CCc1ccccc1-2` [Example 7, 2-(acetylamino)-4,5-dihydronaphtho[1,2-b]thiophene-3-carboxamide], the IC50 was in the range of 10 to 20 µM.
Under `NCCCNc1c(C(N)=O)sc2c1CCc1ccccc1-2` [Example 4, 3-[(3-aminopropyl)amino]-4,5-dihydronaphtho[1,2-b]thiophene-2-carboxamide hydrochloride] stands 10 to 20 µM; under `NC(=O)Nc1c(C(N)=O)sc2c1CCc1ccccc1-2` [Example 5, 3-[(aminocarbonyl)amino]4,5-dihydronaphtho[1,2-b]thiophene-2-carboxamide], 10 to 20 µM.
